The record followed here is patent publication US11730720B2, “ALK5 inhibitors” (THERAVANCE BIOPHARMA R&D IP, LLC, priority 2018, dated 2023).

Assay [1] relates to TGF-β-stimulated SMAD3 phosphorylation in BEAS-2B cells. The assay can be described thus: Cellular ALK5 potency assay, inhibition of TGF-β stimulated pSMAD3 formation in BEAS-2B cells. Format: cell-based. As to conditions: Homo sapiens, inhibition of TGF-β (10 ng/mL) stimulated pSMAD3 formation, 1 hour compound incubation, read-out: BEAS2B pIC50 (converted). In a few lines:
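Phospho-SMAD3 was quantified by AlphaLISA in lysates of human lung epithelial BEAS-2B cells. Compound was added 1 h (37 °C, HEPES/BSA-supplemented HBSS) before a 30 min challenge with 10 ng/mL TGF-β. Values are pIC50 relative to stimulated cells without compound.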

For assay [2], the target named is T1, recombinant human ALK5 (TGF-βR1) protein (Homo sapiens, UniProt P36897).
T1 construct: purchased Life Technologies PR9075A
T1 sequence (P36897 34-503): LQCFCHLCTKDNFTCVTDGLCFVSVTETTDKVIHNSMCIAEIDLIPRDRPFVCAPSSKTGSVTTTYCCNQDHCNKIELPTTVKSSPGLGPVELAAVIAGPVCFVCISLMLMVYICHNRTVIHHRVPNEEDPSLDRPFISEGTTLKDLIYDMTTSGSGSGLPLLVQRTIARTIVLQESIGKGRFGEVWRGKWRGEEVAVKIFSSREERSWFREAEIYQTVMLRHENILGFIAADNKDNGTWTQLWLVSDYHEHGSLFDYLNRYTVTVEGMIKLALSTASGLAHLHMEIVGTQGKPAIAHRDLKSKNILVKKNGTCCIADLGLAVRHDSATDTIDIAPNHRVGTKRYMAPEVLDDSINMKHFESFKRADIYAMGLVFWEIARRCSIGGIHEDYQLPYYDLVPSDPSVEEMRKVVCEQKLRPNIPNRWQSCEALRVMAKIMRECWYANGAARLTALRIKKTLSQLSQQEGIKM
The assay can be described thus: Biochemical ALK5 (TGF-βR1) assay to measure pKi (LANCE Ultra ULight kinase assay). As to conditions: apparent pKi, converted from pIC50 using the Cheng-Prusoff equation. In a few lines: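 TR-FRET kinase format: compound dose range 10 μM–25 pM equilibrated 60 min with human ALK5 and ULight-labelled topoisomerase 2α peptide in HEPES/MgCl2 buffer pH 7.5 with DTT. Reaction started with ATP (125 μM stock, 5× final), 60 min at 37° C, stopped with EDTA/Eu-anti-phospho antibody; pKi derived from pIC50 via Cheng-Prusoff.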
In general terms: TR-FRET usually uses a lanthanide donor and a delayed reading to cut background.

A value given as a limit tells only on which side of the number the result lay.

`Fc1ccc(Cl)cc1-c1n[nH]cc1-c1ccc2ncc(NCC3CCNCC3)cc2n1` [Compound 1-27, 6-[3-(5-chloro-2-fluoro-phenyl)-1H-pyrazol-4-yl]-N-(4-piperidylmethyl)-1,5-naphthyridin-3-amine]: the IC50 in assay [1] was 25.1 to 158 nM. Further, the Ki in assay [2] was at most 0.0316 nM.
In the same order, the values of `Fc1ccc(Cl)cc1-c1n[nH]cc1-c1ccc2ncc(NCC3CNC3)cc2n1` [Compound 1-28, N-(azetidin-3-ylmethyl)-6-[3-(5-chloro-2-fluoro-phenyl)-1H-pyrazol-4-yl]-1,5-naphthyridin-3-amine] are 25.1 to 158 nM and 0.0398 to 0.316 nM.
Consider `CN1CCN(c2ccc(Nc3cnc4ccc(-c5c[nH]nc5-c5cc(Cl)ccc5F)nc4c3)nc2)CC1` [Compound 1-29, 6-(3-(5-chloro-2-fluorophenyl)-1H-pyrazol-4-yl)-N-(5-(4-methylpiperazin-1-yl)pyridin-2-yl)-1,5-naphthyridin-3-amine], for which, in assay [1], the IC50 is 25.1 to 158 nM. For the same molecule, the Ki in assay [2] is 0.0398 to 0.316 nM.
For `CC(C)N1CCN(c2ccc(Nc3cnc4ccc(-c5c[nH]nc5-c5cc(Cl)ccc5F)nc4c3)nc2)CC1` [Compound 1-30, 6-(3-(5-chloro-2-fluorophenyl)-1H-pyrazol-4-yl)-N-(5-(4-isopropylpiperazin-1-yl)pyridin-2-yl)-1,5-naphthyridin-3-amine], in that order: 25.1 to 158 nM and 0.0398 to 0.316 nM.
In the same order, the values of `CN(C)C1CN(c2cnc3ccc(-c4c[nH]nc4-c4cc(Cl)ccc4F)nc3c2)C1` [Compound 1-31, 1-(6-(3-(5-chloro-2-fluorophenyl)-1H-pyrazol-4-yl)-1,5-naphthyridin-3-yl)-N,N-dimethylazetidin-3-amine] are at most 20 nM and 0.0398 to 0.316 nM.
For `NC(=O)C1(N2CCN(c3cnc4ccc(-c5c[nH]nc5-c5cc(Cl)ccc5F)nc4c3)CC2)CCCC1` [Compound 1-32, 1-[4-[6-[3-(5-chloro-2-fluoro-phenyl)-1H-pyrazol-4-yl]-1,5-naphthyridin-3-yl]piperazin-1-yl]cyclopentanecarboxamide], in assay [1], the IC50 is 25.1 to 158 nM. Further, in assay [2], the Ki was 0.0398 to 0.316 nM.
For `CN(C)C1(C)CN(c2cnc3ccc(-c4c[nH]nc4-c4cc(Cl)ccc4F)nc3c2)C1` [Compound 1-33, 1-[6-[3-(5-chloro-2-fluoro-phenyl)-1H-pyrazol-4-yl]-1,5-naphthyridin-3-yl]-N,N,3-trimethyl-azetidin-3-amine], in that order: 25.1 to 158 nM and 0.398 to 3.16 nM.
For `O=C(OCc1ccccc1)N1CCC2(CCN(c3cnc4ccc(-c5c[nH]nc5-c5cc(Cl)ccc5F)nc4c3)C2)C1` (stereo not shown) [Compound 1-35, benzyl 7-[6-[3-(5-chloro-2-fluoro-phenyl)-1H-pyrazol-4-yl]-1,5-naphthyridin-3-yl]-2,7-diazaspiro[4.4]nonane-2-carboxylate], in that order: 200 to 1260 nM and 3.98 to 31.6 nM.
For `OCCN1CCN(c2cnc3ccc(-c4c[nH]nc4-c4cc(Cl)ccc4F)nc3c2)CC1` [Compound 1-36, 2-[4-[6-[3-(5-chloro-2-fluoro-phenyl)-1H-pyrazol-4-yl]-1,5-naphthyridin-3-yl]piperazin-1-yl]ethanol], in that order: 25.1 to 158 nM and 0.0398 to 0.316 nM.
Consider `CN1CCC(N(C)c2cnc3ccc(-c4c[nH]nc4-c4cc(Cl)ccc4F)nc3c2)CC1` [Compound 1-37, 6-[3-(5-chloro-2-fluoro-phenyl)-1H-pyrazol-4-yl]-N-methyl-N-(1-methyl-4-piperidyl)-1,5-naphthyridin-3-amine], for which the IC50 in assay [1] was 25.1 to 158 nM. The Ki in assay [2] is 0.0398 to 0.316 nM.
In the same order, the values of `CCN1CCC(N(C)c2cnc3ccc(-c4c[nH]nc4-c4cc(Cl)ccc4F)nc3c2)CC1` [Compound 1-38, 6-[3-(5-chloro-2-fluoro-phenyl)-1H-pyrazol-4-yl]-N-(1-ethyl-4-piperidyl)-N-methyl-1,5-naphthyridin-3-amine] are 25.1 to 158 nM and 0.398 to 3.16 nM.
For `Fc1ccc(Cl)cc1-c1n[nH]cc1-c1ccc2ncc(N3CC(N4CCCCC4)C3)cc2n1` [Compound 1-40, 2-[3-(5-chloro-2-fluoro-phenyl)-1H-pyrazol-4-yl]-7-[3-(1-piperidyl)azetidin-1-yl]-1,5-naphthyridine], in that order: 25.1 to 158 nM and 0.0398 to 0.316 nM.
In the same order, the values of `CN(CC1CNC1)c1cnc2ccc(-c3c[nH]nc3-c3cc(Cl)ccc3F)nc2c1` [Compound 1-41, N-(azetidin-3-ylmethyl)-6-[3-(5-chloro-2-fluoro-phenyl)-1H-pyrazol-4-yl]-N-methyl-1,5-naphthyridin-3-amine] are 25.1 to 158 nM and 0.0398 to 0.316 nM.
Consider `CC(C)N1CCN(c2cnc3ccc(-c4c[nH]nc4-c4cc(Cl)ccc4F)nc3c2)CC1` [Compound 1-43, 2-[3-(5-chloro-2-fluoro-phenyl)-1H-pyrazol-4-yl]-7-(4-isopropylpiperazin-1-yl)-1,5-naphthyridine], for which the IC50 in assay [1] is 25.1 to 158 nM. Further, the Ki in assay [2] was 0.0398 to 0.316 nM.
As for `Fc1ccc(Cl)cc1-c1n[nH]cc1-c1ccc2ncc(N3CCC(N4CCCC4)CC3)cc2n1` [Compound 1-44, 2-[3-(5-chloro-2-fluoro-phenyl)-1H-pyrazol-4-yl]-7-(4-pyrrolidin-1-yl-1-piperidyl)-1,5-naphthyridine], in assay [1], the IC50 is 25.1 to 158 nM. Moreover, in assay [2], the Ki is 0.0398 to 0.316 nM.
In the same order, the values of `CN(C)C1CCN(c2cnc3ccc(-c4c[nH]nc4-c4cc(Cl)ccc4F)nc3c2)CC1` [Compound 1-45, 1-[6-[3-(5-chloro-2-fluoro-phenyl)-1H-pyrazol-4-yl]-1,5-naphthyridin-3-yl]-N,N-dimethyl-piperidin-4-amine] are at most 20 nM and 0.0398 to 0.316 nM.
In the same order, the values of `Fc1ccc(Cl)cc1-c1n[nH]cc1-c1ccc2ncc(N3CCn4nc(N5CCN(Cc6ccccc6)CC5)nc4C3)cc2n1` [Compound 1-46, 7-[2-(4-benzylpiperazin-1-yl)-6,8-dihydro-5H-[1,2,4]triazolo[1,5-a]pyrazin-7-yl]-2-[3-(5-chloro-2-fluoro-phenyl)-1H-pyrazol-4-yl]-1,5-naphthyridine] are 25.1 to 158 nM and 0.0398 to 0.316 nM.
In the same order, the values of `Fc1ccc(Cl)cc1-c1n[nH]cc1-c1ccc2ncc(N3CCn4nc(N5CCN(Cc6ccccc6)CC5)cc4C3)cc2n1` [Compound 1-47, 7-[2-(4-benzylpiperazin-1-yl)-6,7-dihydro-4H-pyrazolo[1,5-a]pyrazin-5-yl]-2-[3-(5-chloro-2-fluoro-phenyl)-1H-pyrazol-4-yl]-1,5-naphthyridine] are 25.1 to 158 nM and 0.0398 to 0.316 nM.
On to `Fc1ccc(Cl)cc1-c1n[nH]cc1-c1ccc2ncc(N3CCn4nc(Br)nc4C3)cc2n1` [Compound 1-48, 7-(2-bromo-6,8-dihydro-5H-[1,2,4]triazolo[1,5-a]pyrazin-7-yl)-2-[3-(5-chloro-2-fluoro-phenyl)-1H-pyrazol-4-yl]-1,5-naphthyridine], for which, in assay [1], the IC50 is at most 20 nM. Also, the Ki in assay [2] is 0.398 to 3.16 nM.
For `CNC1CN(c2cnc3ccc(-c4c[nH]nc4-c4cc(Cl)ccc4F)nc3c2)C1` [Compound 1-49, 1-(6-(3-(5-chloro-2-fluorophenyl)-1H-pyrazol-4-yl)-1,5-naphthyridin-3-yl)-N-methylazetidin-3-amine], in that order: at most 20 nM and 0.0398 to 0.316 nM.
